Measured values taken from patent US20020019527A1 (priority 2000, published 2002).
Structures can show the parent of a compound that is named as a salt. Where two headings read alike, the source gives them in different places.

Biological target: T1, Farnesyltransferase (FTase) (Bos taurus, UniProt P29702+P49355)
T1 construct: precipitation from a beef brain homogenate; from tissue; host or cells: bovine brain
Assay: Farnesyltransferase inhibition (scintillation proximity assay, [3H]-FPP / biotin-K-ras peptide)
Assay type: biochemical, bovine
In short: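 Read-out: [3H]-FPP prenylation of a biotinylated K-ras peptide by SPA, measured 1 h after quenching. Enzyme: FTase purified from bovine brain (ammonium sulfate cut, DEAE Sepharose), free of GGTase I and II. Test compounds in ethanol, diluted 10-fold into the reaction.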

[1] = compound at 10^−6 M, bovine FTase, 37° C., 30 minutes

T1 sequence (P49355 whole entry, one chain of several): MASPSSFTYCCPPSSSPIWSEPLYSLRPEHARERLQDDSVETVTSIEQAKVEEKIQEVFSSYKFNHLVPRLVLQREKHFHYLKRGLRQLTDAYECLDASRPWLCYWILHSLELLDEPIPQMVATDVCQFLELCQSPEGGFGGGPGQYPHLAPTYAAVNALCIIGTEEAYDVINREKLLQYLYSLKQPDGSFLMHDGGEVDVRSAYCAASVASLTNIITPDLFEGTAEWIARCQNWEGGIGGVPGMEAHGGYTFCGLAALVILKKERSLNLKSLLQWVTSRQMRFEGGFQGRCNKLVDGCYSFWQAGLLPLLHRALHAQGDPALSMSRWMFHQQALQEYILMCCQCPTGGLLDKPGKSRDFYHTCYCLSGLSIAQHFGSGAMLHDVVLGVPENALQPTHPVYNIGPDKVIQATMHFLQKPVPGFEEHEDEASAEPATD

Cc1cc(COC(c2ccc(C#N)c(-c3ccccc3C)c2)c2cncn2C)no1 (stereo not drawn) [Example 177, 2′-methyl-5-((1-methyl-1H-imidazol-5-yl)((5-methyl-3-isoxazolyl)methoxy)methyl)(1,1′-biphenyl)-2-carbonitrile hydrochloride]
inhibition at 1 µM [1]: 77%

Cn1cncc1CN(Cc1ccc(C#N)c(-c2cccc3ccccc23)c1)C(=O)c1cnc(Cl)c(Cl)c1 [Example 199, 5,6-dichloro-N-(4-cyano-3-(1-naphthyl)benzyl)-N-((1-methyl-1H-imidazol-5-yl)methyl)nicotinamide]
inhibition at 1 µM [1]: 89%

CCN(Cc1ccc(C#N)cc1)C(c1ccc(C#N)c(-c2ccccc2C)c1)c1cncn1C (stereo not drawn) [Example 28, 5-(((4-cyanobenzyl)(ethyl)amino)(1-methyl-1H-imidazol-5-yl)methyl)-2′-methyl(1,1′-biphenyl)-2-carbonitrile dihydrochloride]
inhibition at 1 µM [1]: 100%

Cc1ccccc1-c1cc(C(OCc2noc(C(C)(C)C)n2)c2cncn2C)ccc1C#N (stereo not drawn) [Example 159, 5-(((5-(tert-butyl)-1,2,4-oxadiazol-3-yl)methoxy)(1-methyl-1H-imidazol-5-yl)methyl)-2′-methyl(1,1′-biphenyl)-2-carbonitrile hydrochloride]
inhibition at 1 µM [1]: 91%

CCOC(=O)N1CCC(NC(c2ccc(C#N)c(-c3cccc4ccccc34)c2)c2cncn2C)CC1 (stereo not drawn) [Example 50, ethyl 4-(((4-cyano-3-(1-naphthyl)phenyl)(1-methyl-1H-imidazol-5-yl)methyl)amino)-1-piperidinecarboxylate dihydrochloride]
inhibition at 1 µM [1]: 100%

Cl.Cn1cncc1C(OCc1ccccc1)c1ccc(C#N)c(-c2c3ccccc3cc3ccccc23)c1 (stereo not drawn) [Example 7]
% Inhibition at 10^−6M [1]: 92%

Cn1cncc1C(OCc1ccc(C(=O)O)cn1)c1ccc(C#N)c(-c2cccc3cccnc23)c1 (stereo not drawn) [Example 245, 6-(((4-cyano-3-(8-quinolinyl)phenyl)(1-methyl-1H-imidazol-5-yl)methoxy)methyl)nicotinic acid trihydrochloride]
inhibition at 1 µM [1]: 90%

Cn1cncc1C(OCc1ccc(C#N)cc1)c1cnc(C#N)c(-c2cccc3ccccc23)c1 (stereo not drawn) [Example 275, 5-(((4-cyanobenzyl)oxy)(1-methyl-1H-imidazol-5-yl)methyl)-3-(1-naphthyl)-2-pyridinecarbonitrile dihydrochloride]
inhibition at 1 µM [1]: 100%

Cl.Cn1cncc1C(OCc1ccc([N+](=O)[O-])cc1)c1ccc(C#N)c(-c2cccc3ccccc23)c1 (stereo not drawn) [Example 59, 4-((1-methyl-1H-imidazol-5-yl)((4-nitrobenzyl)oxy)methyl)-2-(1,1-naphthyl)benzonitrile hydrochloride]
% Inhibition at 10^−6M [1]: 100%

COc1ccccc1-c1nc(COC(c2ccc(C#N)c(-c3ccccc3C)c2)c2cncn2C)no1 (stereo not drawn) [Example 163, 5-(((5-(2-methoxyphenyl)-1,2,4-oxadiazol-3-yl)methoxy)(1-methyl-1H-imidazol-5-yl)methyl)-2′-methyl(1,1-biphenyl)-2-carbonitrile hydrochloride]
inhibition at 1 µM [1]: 84%

Cn1cncc1CNc1ccc(C#N)c(-c2cccc3ccccc23)c1 [Example 234, 4-(((1-methyl-1H-imidazol-5-yl)methyl)amino)-2-(1-naphthyl)benzonitrile]
inhibition at 1 µM [1]: 100%

COc1cccc(COC(c2ccc(C#N)c(-c3ccccc3C)c2)c2cncn2C)c1 (stereo not drawn) [Example 134, 5-(((3-methoxybenzyl)oxy)(1-methyl-1H-imidazol-5-yl)methyl)-2′-methyl(1,1′-biphenyl)-2-carbonitrile hydrochloride]
inhibition at 1 µM [1]: 93%

Cn1cncc1CN(Cc1ccc(C#N)cc1)Cc1ccc(C#N)c(-c2cccc3ccccc23)c1 [Example 34, 4-(((4-cyanobenzyl)((1-methyl-1H-imidazol-5-yl)methyl)amino)methyl)-2-(1-naphthyl)benzonitrile]
inhibition at 1 µM [1]: 100%

Cn1cncc1C(OCc1ccc(C#N)cc1)c1ccc(C#N)c(-c2cccc3cnccc23)c1 (stereo not drawn) [Example 44, 4-(((4-cyanobenzyl)oxy)(1-methyl-1H-imidazol-5-yl)methyl)-2-(5-isoquinolinyl)benzonitrile]
inhibition at 1 µM [1]: 100%

N#Cc1ccc(COC(c2ccc(C#N)c(-c3cccc4ccccc34)c2)c2cnc[nH]2)cc1 (stereo not drawn) [Example 46, 4-(((4-cyanobenzyl)oxy)(1H-imidazol-5-yl)methyl)-2-(1-naphthyl)benzonitrile hydrochloride]
inhibition at 1 µM [1]: 100%

Cc1ccccc1-c1cc(C(OCc2ccc3ccccc3c2)c2cncn2C)ccc1C#N (stereo not drawn) [Example 183, 2′-methyl-5-((1-methyl-1H-imidazol-5-yl)(2-naphthylmethoxy)methyl)(1,1′-biphenyl)-2-carbonitrile hydrochloride]
inhibition at 1 µM [1]: 90%

Cn1cncc1C(NC1CCN(Cc2ccccc2)CC1)c1ccc(C#N)c(-c2cccc3ccccc23)c1 (stereo not drawn) [Example 55, 4-(((1-benzyl-4-piperidinyl)amino)(1-methyl-1H-imidazol-5-yl)methyl)-2-(1-naphthyl)benzonitrile trihydrochloride]
inhibition at 1 µM [1]: 100%

Cc1ccccc1-c1cc(CNc2cccnc2)ccc1C#N [Example 212, 2′-methyl-5-((3-pyridinylamino)methyl)(1,1′-biphenyl)-2-carbonitrile]
inhibition at 1 µM [1]: 10%

Cc1ccccc1-c1cc(C(NC2CCN(C(=O)c3ccccc3)CC2)c2cncn2C)ccc1C#N (stereo not drawn) [Example 16, 5-(((1-benzoyl-4-piperidinyl)amino)(1-methyl-1H-imidazol-5-yl)methyl)-2′-methyl(1,1′-biphenyl)-2-carbonitrile dihydrochloride]
inhibition at 1 µM [1]: 100%

Cn1cncc1C(OCc1ccccc1)c1ccc(C#N)c(-c2ccc3c4c(cccc24)CC3)c1 (stereo not drawn) [Example 9, 4-((benzyloxy)(1-methyl-1H-imidazol-5-yl)methyl)-2-(1,2-dihydro-5-acenaphthylenyl)benzonitrile hydrochloride]
inhibition at 1 µM [1]: 64%

Cc1ccccc1-c1cc(C(OCc2ccc([N+](=O)[O-])cc2)c2cncn2C)ccc1C#N.Cl (stereo not drawn) [Example 121]
% Inhibition at 10^−6M: 96%

Cc1ccccc1-c1cc(CN(Cc2ccccc2)Cc2cccnc2)ccc1C#N [Example 215, 5-((benzyl(3-pyridinylmethyl)amino)methyl)-2′-methyl(1,1′-biphenyl)-2-carbonitrile hydrochloride]
inhibition at 1 µM [1]: 29%

N#Cc1ccc(CN(Cc2ccc(C#N)c(-c3cccc4ccccc34)c2)Cc2cnc[nH]2)cc1 [Example 45, 4-(((4-cyanobenzyl)(1H-imidazol-5-ylmethyl)amino)methyl)-2-(1-naphthyl)benzonitrile dihydrochloride]
inhibition at 1 µM [1]: 100%

Cl.Cl.Cn1cncc1C(OCc1ccc(C(F)(F)F)c(F)c1)c1ccc(C#N)c(-c2cccc3cccnc23)c1 (stereo not drawn) [Example 241, 4-(((3-fluoro-4-(trifluoromethyl)benzyl)oxy)(1-methyl-1H-imidazol-5-yI)methyl)-2-(8-quinolinyl)benzonitrile dihydrochloride]
% Inhibition at 10^−6M [1]: 98%

Cc1ccccc1-c1cc(C(O)(CCc2ccccc2)c2cncn2C)ccc1C#N (stereo not drawn) [Example 110, 5-(1-hydroxy-1-(1-methyl-1H-imidazol-5-yl)-3-phenylpropyl)-2′-methyl(1,1′-biphenyl)-2-carbonitrile]
inhibition at 1 µM [1]: 96%

CNC(=O)c1ccc(CNC(c2ccc(C#N)c(-c3cccc4ccccc34)c2)c2cncn2C)cc1 (stereo not drawn) [Example 48, 4-((((4-cyano-3-(1-naphthyl)phenyl)(1-methyl-1H-imidazol-5-yl)methyl)amino)methyl)-N-methylbenzamide dihydrochloride]
inhibition at 1 µM [1]: 100%

Cn1cncc1CN(CCCc1ccccc1)c1ccc(C#N)c(-c2cccc3ccccc23)c1 [Example 230, 4-(((1-methyl-1H-imidazol-5-yl)methyl)(3-phenylpropyl)amino)-2-(1-naphthyl)benzonitrile]
inhibition at 1 µM [1]: 100%

N#Cc1ccc(N(Cc2ccccc2)Cc2cnc[nH]2)cc1-c1cccc2ccccc12 [Example 265, 4-(benzyl(1H-imidazol-5-ylmethyl)amino)-2-(1-naphthyl)benzonitrile]
inhibition at 1 µM [1]: 100%

Cn1cncc1C(OCc1ccc(C#N)cc1)c1ccc(C#N)c(I)c1 (stereo not drawn) [Example 60, 4-(((4-cyanobenzyl)oxy)(1-methyl-1H-imidazol-5-yl)methyl)-2-iodobenzonitrile hydrochloride]
inhibition at 1 µM [1]: 96%

Cc1ccccc1-c1cc(C(OCc2c(C)c(C)cc(C)c2C)c2cncn2C)ccc1C#N.Cl (stereo not drawn) [Example 179]
% Inhibition at 10^−6M: 93%

Cn1cncc1CN(C(=O)c1ccccc1)c1ccc(C#N)c(-c2cccc3ccccc23)c1 [Example 235, N-(4-cyano-3-(1-naphthyl)phenyl)-N-((1-methyl-1H-imidazol-5-yl)methyl)benzamide]
inhibition at 1 µM [1]: 100%

Cc1ccccc1-c1cc(C(OCc2ccc(C(N)=O)cc2)c2cncn2C)ccc1C#N (stereo not drawn) [Example 188, 4-(((6-cyano-2′-methyl(1,1′-biphenyl)-3-yl)(1-methyl-1H-imidazol-5-yl)methoxy)methyl)benzamide]
inhibition at 1 µM [1]: 92%

Cn1cncc1C(OCc1ccc(Cl)c(Cl)c1)c1ccc(C#N)c(-c2cccc3cccnc23)c1 (stereo not drawn) [Example 240, 4-(((3,4-dichlorobenzyl)oxy)(1-methyl-1H-imidazol-5-yl)methyl)-2-(8-quinolinyl)benzonitrile dihydrochloride]
inhibition at 1 µM [1]: 95%

CCCCN(Cc1ccc(C#N)cc1)C(c1ccc(C#N)c(-c2cccc3ccccc23)c1)c1cncn1C (stereo not drawn) [Example 30, 4-((butyl(4-cyanobenzyl)amino)(1-methyl-1H-imidazol-5-yl)methyl)-2-(1-naphthyl)benzonitrile dihydrochloride]
inhibition at 1 µM [1]: 100%

Cc1ccccc1-c1cc(C(O)c2cncn2C)ccc1C#N (stereo not drawn) [Example 86, 5-(hydroxy(1-methyl-1H-imidazol-5-yl)methyl)-2′-methyl(1,1′-biphenyl)-2-carbonitrile]
inhibition at 1 µM [1]: 86%

C=CCN(Cc1cncn1C)c1ccc(C#N)c(-c2cccc3ccccc23)c1 [Example 228, 4-(allyl( (1-methyl-1H-imidazol-5-yl)methyl)amino)-2-(1-naphthyl)benzonitrile]
inhibition at 1 µM [1]: 100%
